Test results as given in ChEMBL document CHEMBL5131491, “N6-modification of 7-Deazapurine nucleoside analogues as Anti-Trypanosoma cruzi and anti-Leishmania agents: Structure-activity relationship exploration and In vivo evaluation” (Eur J Med Chem, 2022).
pEC50: −log10 of the molar value.

Columns and labels:
Trypanosoma cruzi [1] = test: Antitrypanosomal activity against intracellular Trypanosoma cruzi Tulahuen amastigotes expressing CL2 beta-galactosidase in human MRC5 cells assessed as parasite growth inhibition using chlorophenol red beta-D-galactopyranoside as substrate treated for 7 days by spectrophotometry; assay type: functional, organism-based; conditions: MRC5, 168 h
[2] = Selectivity index, ratio of CC50 for Swiss mouse peritoneal macrophages to EC50 for antileishmanial activity against intracellular Leishmania infantum MHOM/MA(BE)/67 amastigotes infected in Swiss mouse peritoneal macrophages; assay type: toxicity, cell-based; conditions: read-out: Selectivity Index
Leishmania infantum = test: Antileishmanial activity against intracellular Leishmania infantum MHOM/MA(BE)/67 amastigotes infected in Swiss mouse peritoneal macrophages assessed as parasite growth inhibition incubated for 5 days by giemsa staining based microscopic analysis; assay type: functional, organism-based; conditions: MHOM/MA(BE)/67, Macrophage, 120 h
[3] = Selectivity index, ratio of CC50 for human MRC-5 cells to EC50 for antitrypanosomal activity against intracellular Trypanosoma cruzi Tulahuen amastigotes expressing CL2 beta-galactosidase in human MRC5 cells; assay type: toxicity, cell-based; conditions: read-out: Selectivity Index
[4] = Cytotoxicity against human MRC5 fibroblast cells assessed as reduction in cell viability measured after 3 days by fluorometry; assay type: toxicity, cell-based; conditions: time 3 day
[5] = Cytotoxicity against Swiss mouse peritoneal macrophages assessed as reduction in cell viability measured after 5 days by microscopic analysis; assay type: toxicity, cell-based, Macrophage; conditions: time 5 day
Trypanosoma cruzi [6] = test: Antitrypanosomal activity against Trypanosoma cruzi Y strain infected in acute CD Swiss Webster mouse model assessed as reduction in parasitemia at 100 mg/kg, po qd for 5 consecutive days by light microscopy relative to control; assay type: functional; parameters: scale not given: the % may be the effect or the level left; conditions: time 5 day
[7] = Toxicity in acute CD Swiss Webster mouse model infected with Trypanosoma cruzi Y strain assessed as animal survival at 100 mg/kg, po qd for 5 consecutive days measured daily for upto 30 days post-treatment; assay type: organism-based; conditions: in vivo, 720 h, time < 30 day

Compound	pEC50 (Trypanosoma cruzi [1])	selectivity ratio [2]	pEC50 (Leishmania infantum)	selectivity ratio [3]	CC50 at 72 h [4] [µM]	CC50 at 120 h [5] [µM]	Activity (Trypanosoma cruzi [6]) [%]	Survival [7]
Nc1nc(N)c2ccn([C@@H]3O[C@H](CO)[C@@H](O)[C@H]3O)c2n1	5.87	> 2.99	4.67	6.6	> 64	> 64		
OC[C@H]1O[C@@H](n2ccc3c(Nc4ccccc4)ncnc32)[C@H](O)[C@@H]1O	5.10	1.46	5.86	> 8.11	> 64	2		
OC[C@H]1O[C@@H](n2ccc3c(NC4CCCC4)ncnc32)[C@H](O)[C@@H]1O	4.84	> 1.83	4.46	> 4.41	> 64	> 64		
OC[C@H]1O[C@@H](n2ccc3c(NCc4ccccc4)ncnc32)[C@H](O)[C@@H]1O	5.13	4.59	5.96	> 8.56	> 64	5		
OC[C@H]1O[C@@H](n2ccc3c(N4CCC4)ncnc32)[C@H](O)[C@@H]1O	5.18		< 4.19	> 9.6	> 64	64		
OC[C@H]1O[C@@H](n2ccc3c(N4CCOCC4)ncnc32)[C@H](O)[C@@H]1O	< 4.19		< 4.19		> 64	> 64		
CC1CCN(c2ncnc3c2ccn3[C@@H]2O[C@H](CO)[C@@H](O)[C@H]2O)CC1	5.11	3.08	5.59	> 8.15	> 64	8		
CCN(CC)c1ncnc2c1ccn2[C@@H]1O[C@H](CO)[C@@H](O)[C@H]1O	< 4.19		< 4.19		> 64	64		
Nc1cnc2c(ccn2[C@@H]2O[C@H](CO)[C@@H](O)[C@H]2O)c1	< 4.19		< 4.19	7.9	> 64	> 64		
Nc1ncnc2c1ccn2[C@@H]1O[C@H](CO)[C@@H](O)[C@H]1O [TUBERCIDIN]	6.47	1	6.89	6.6	2.23	0.13		
C=CCNc1ncnc2c1ccn2[C@@H]1O[C@H](CO)[C@@H](O)[C@H]1O	5.59	1.33	5.22	3.45	8.9	8		
CCNc1ncnc2c1ccn2[C@@H]1O[C@H](CO)[C@@H](O)[C@H]1O	5.29	> 125	6.29	> 12.6	> 64	> 64		
Nc1ncc2ccn([C@@H]3O[C@H](CO)[C@@H](O)[C@H]3O)c2n1	4.47		< 4.19	> 1.89	> 64	> 64		
OC[C@H]1O[C@@H](n2ccc3c(N4CCCCC4)ncnc32)[C@H](O)[C@@H]1O	5.11	1.8	5.95	> 8.27	> 64	2		
O=C(Cn1ccnc1[N+](=O)[O-])NCc1ccccc1 [BENZNIDAZOLE]							100	Non-Toxic
CNc1ncnc2c1ccn2[C@H]1O[C@@H](CO)[C@H](O)[C@@H]1O	4.49		< 4.19	> 1.98	> 64	> 64		
OC[C@H]1O[C@@H](n2ccc3c(N4CCCC4)ncnc32)[C@H](O)[C@@H]1O	< 4.19		< 4.19		> 64	64		
CCCCNc1ncnc2c1ccn2[C@@H]1O[C@H](CO)[C@@H](O)[C@H]1O	5.38	> 16.7	5.42	> 15.5	> 64	> 64		
CC(C)Nc1ncnc2c1ccn2[C@@H]1O[C@H](CO)[C@@H](O)[C@H]1O	< 4.19		< 4.19		> 64	> 64		
CCCCCCCCCCCCCCCCOP(=O)([O-])OCC[N+](C)(C)C [MILTEFOSINE]			5.08					
OC[C@H]1O[C@@H](n2ccc3c(NC4CCCCC4)ncnc32)[C@H](O)[C@@H]1O	5.11	> 3.32	4.71	5.7	44.6	> 64		
CN(C)c1ncnc2c1ccn2[C@@H]1O[C@H](CO)[C@@H](O)[C@H]1O	5.78		< 4.19	4.28	7.06	64		
CCCNc1ncnc2c1ccn2[C@@H]1O[C@H](CO)[C@@H](O)[C@H]1O	4.85		< 4.19	> 4.51	> 64	> 64		
Nc1ncnc2c1ccn2[C@@H]1O[C@H](CO)C[C@H]1O	< 4.19		< 4.19		> 64	> 64		
Nc1ccnc2c1ccn2[C@@H]1O[C@H](CO)[C@@H](O)[C@H]1O	5.64	> 1.65	4.41	> 47.1	17.9	> 64		
OC[C@H]1O[C@@H](n2ccc3c(NC4CC4)ncnc32)[C@H](O)[C@@H]1O	5.64	3.47	6.44	> 28.1	> 64	1.25		
